From US20230227838A1, “ENHANCED CELL SURVIVAL AGAINST BIOTIC AND ABIOTIC STRESSES THROUGH SALICYLICK ACID-INDUCED NPR1 CONDENSATES” (priority 2020, published 2023)
Entries after “also recorded” stand apart in the source; their conditions may differ.

Key:
[1] = test system: cytoplasmic condensates (SINCs); experiment: Confocal imaging of localization and condensate (body) formation of GFP-fused NPR proteins and variants; type: cell-based, Nicotiana benthamiana; details: for SA-induced cytoplasmic body/condensate (SINC) formation: 5 mM SA for 2 hr
Procedure, shortened: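 GFP fusions transiently expressed in N. benthamiana by Agrobacterium infiltration (OD600 1). For NPR1-GFP, 4-day Arabidopsis seedlings were vacuum-infiltrated and, at 48 hpi, soaked 2 h in water or SA. Airyscan confocal, 40× water objective, GFP ex 488 nm/em 505-530 nm; condensate number, size and intensity scored by automated thresholding.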

[2] = test system: CUL3; experiment: Co-IP of Myc-CUL3 with HA-fused NPR1 or variants; type: binding, Arabidopsis thaliana; details: for CUL3 pull-down signal in co-IP: 1 mM SA for 5 hr
Description: Plant transformation: For plant transformations, the Agrobacterium tumefaciens strain GV3101 was transformed with plant binary vectors carrying the indicated transgenes. For stable expression in Arabidopsis, a floral dipping method was used. For transient expression in N benthamiana, the Agrobacterium carrying the indicated construct was cultured overnight at 28° C. in Luria-Bertani (LB) broth medium supplemented with appropriate antibiotics: spectinomycin (100 μg/ml), kanamycin (50 μg/ml), gentamycin (50 μg/ml), and rifampicin (25 μg/ml). The obtained culture was re-inoculated at 1:10 into fresh growth media with antibiotics and grown for another 4 hr. Cells were then spun down at 1,600 g for 10 min, and inoculum was prepared by resuspending cells to OD600 nm=1 in double distilled water (DDW) containing 200 μM acetosyringone (Sigma). Unless otherwise stated, for co-IP, co-localization, and BiFC assays in N. benthamiana, the proteins were co-expressed at 1:1 mixture of the relevant Agrobacteria inoculums. In all BiFC assays, the pair of YN/YC fusions was co-expressed together with free mCherry to mark the cytoplasm and nucleus, mCherry-NLS to mark the nucleus only, or mCherry-fused test proteins for co-localization analysis. The inoculum was pressure infiltrated into N. benthamiana leaves at the abaxial side using 1 ml syringe without the needle. Due to low overall levels of NPR1-GFP in transgenic plants, a transient expression assay in Arabidopsis seedlings was used to monitor NPR1-GFP subcellular localization after SA treatment (FIG. 2B). To limit the imaging time in this transient assay (2 hours), a higher baseline SA concentration had to be used. Seeds of WT (Col-0) Arabidopsis were germinated on solid half-strength Murashige and Skoog (1/2 MS) medium and grown for 4 days. Agrobacterium carrying the indicated constructs was grown overnight in LB medium supplemented with appropriate antibiotics. The obtained culture was re-inoculated at 1:10 into virulence induction medium [50.78 mM MES, 0.5% Glucose, 1.734 mM NaH2PO4, 5% of 20X-AB mix (373.9 mM NH4C1, 24.34 mM MgSO4, 40.23 mM KCl, 1.36 mM CaCl2 and 0.18 mM FeSO4·7H2O), 200 μM acetosyringone] supplemented with 25 μg/ml rifampicin and grown for another 24 hr at 28° C. to OD600=0.8 (inoculum). Seedlings were vacuum-infiltrated with the inoculum, and at 48 hpi (hours post inoculation), treatments were performed by submerging the transformed seedlings in water or SA solution at indicated concentrations for 2 hr. Entire cotyledons were sampled for microscopy.
Protein analysis and IP. Recombinant protein analysis was performed using transient expression in N. benthamiana, or stable over-expression in transgenic Arabidopsis, or expression in E. coli. Total protein extraction from plants was performed by homogenizing leaf tissue in the plant extraction buffer [50 mM Tris-HCl (pH 7.5), 150 mM NaCl, 5 mM EDTA, 0.2% Triton X-100, 0.2% Nonidet P-40] supplemented with 1 mM PMSF, 100 μM MG132, and EDTA-free protease inhibitor cocktail (Roche). For ubiquitinated protein analysis in plants, 100 μM of DUB (deubiquitinase) inhibitor (LifeSensors) and 10 mM NEM were added. Next, the lysates were cleared by centrifugation at 14,000 rpm for 15 min followed by filtering through a 0.2 μm filter. […] Pull-downs or IP experiments were done on total protein extracts by incubating protein samples in the lysis buffer overnight with indicated affinity tag or antibody conjugated to agarose or magnetic beads: GFP-trap agarose beads (Chromotek) for GFP fusions; RFP-trap agarose beads (Chromotek) for mCherry fusions; anti-HA magnetic beads (ThermoFisher) for HA tag fusions; anti-DYKDDDDK coupled magnetic agarose (ThermoFisher) for FLAG tag fusions; and glutathione magnetic agarose (ThermoFisher) for GST fusions. Unless otherwise indicated, after pull-down/IP, beads were washed 3 times and proteins were eluted by boiling in the 2×SDS sample buffer. […]

[3] = test system: FLAG-WRKY70; experiment: NPR1-CRL3 ubiquitination cascade reconstituted in E. coli; type: biochemical, Arabidopsis thaliana; details: 1 mM sodium salicylate
[4] = 5 mM SA, single-cell imaging for 2 hr starting 40 min after induction

In the case of “NPR1: wild-type Arabidopsis thaliana NPR1 protein, positive regulator of systemic acquired resistance”, the “SA-induced cytoplasmic body/condensate (SINC) formation” value [1] is reported as “significant SA-inducible cytoplasmic body formation”, the “number of bodies, time-lapse” value [1, 4] is reported as “started to decrease after 50 min” and the “total fluorescence from each body, time-lapse” value [1, 4] is reported as “gradual increase in the signal intensity over time”. The “CUL3 pull-down signal in co-IP” value [2] was “weak pull-down signal of CUL3” and the “ubiquitination of WRKY70 in reconstituted NPR1-CRL3 cascade” value [3] was “could mediate ubiquitination of WRKY70”.

`O=C(O)c1ccccc1O` [SA, salicylic acid] was tested, and the “NPR1-CUL3 and sim3-CUL3 interaction under dose response to SA” value ([2]; 0-1 mM SA, 5 hr) was “increase in the interaction”.

B1: sim3: SUMOylation-deficient mutant of NPR1 (protein)
chain: MDTTIDGFADSYEISSTSFVATDNTDSSIVYLAAEQVLTGPDVSALQLLSNSFESVFDSPDDFYSDAKLVLSDGREVSFHRCVLSARSSFFKSALAAAKKEKDSNNTAAVKLELKEIAKDYEVGFDSVVTVLAYVYSSRVRPPPKGVSECADENCCHVACRPAVDFMLEVLYLAFIFKIPELITLYQRHLLDVVDKVVIEDTLVILKLANICGKACMKLLDRCKEIIVKSNVDMVSLEKSLPEELVKEIIDRRKELGLEVPKVKKHVSNVHKALDSDDIELVKLLLKEDHTNLDDACALHFAVAYCNVKTATDLLKLDLADVNHRNPRGYTVLHVAAMRKEPQLAASALEKGASASEATLEGRTALMIAKQATMAVECNNIPEQCKHSLKGRLCVEILEQEDKREQIPRDVPPSFAVAADELKMTLLDLENRVALAQRLFPTEAQAAMEIAEMKGTCEFIVTSLEPDRLTGTKRTSPGVKIAPFRILEEHQSRLKALSKTVELGKRFFPRCSAVLDQIMNCEDLTQLACGEDDTAEKRLQKKQRYMEIQETLKKAFSEDNLELGNSSLTDSTSSTSKSTGGKRSNRKLSHRRR
modifications: left off: small tags and cut ends
notes: SUMOylation-deficient mutant of NPR1
For B1, the “condensate formation at lower SA concentration” value ([1]; 1 mM SA for 5 hr) was “could form condensates at a lower concentration of SA”, the “CUL3 pull-down signal in co-IP” value [2] was “significantly stronger CUL3 pull-down signals” and the “ubiquitination of WRKY70 in reconstituted NPR1-CRL3 cascade” value [3] was “could mediate ubiquitination of WRKY70”.

B2: S55/59D: phosphomimic mutant of NPR1 at S55/59 (protein)
chain: MDTTIDGFADSYEISSTSFVATDNTDSSIVYLAAEQVLTGPDVSALQLLSNSFEDVFDDPDDFYSDAKLVLSDGREVSFHRCVLSARSSFFKSALAAAKKEKDSNNTAAVKLELKEIAKDYEVGFDSVVTVLAYVYSSRVRPPPKGVSECADENCCHVACRPAVDFMLEVLYLAFIFKIPELITLYQRHLLDVVDKVVIEDTLVILKLANICGKACMKLLDRCKEIIVKSNVDMVSLEKSLPEELVKEIIDRRKELGLEVPKVKKHVSNVHKALDSDDIELVKLLLKEDHTNLDDACALHFAVAYCNVKTATDLLKLDLADVNHRNPRGYTVLHVAAMRKEPQLILSLLEKGASASEATLEGRTALMIAKQATMAVECNNIPEQCKHSLKGRLCVEILEQEDKREQIPRDVPPSFAVAADELKMTLLDLENRVALAQRLFPTEAQAAMEIAEMKGTCEFIVTSLEPDRLTGTKRTSPGVKIAPFRILEEHQSRLKALSKTVELGKRFFPRCSAVLDQIMNCEDLTQLACGEDDTAEKRLQKKQRYMEIQETLKKAFSEDNLELGNSSLTDSTSSTSKSTGGKRSNRKLSHRRR
modifications: left off: small tags and cut ends
With B2 the “SA-induced cytoplasmic body/condensate (SINC) formation” value [1] was “inability to form SINCs; also recorded: fail to form cytoplasmic condensates” and the “CUL3 pull-down signal in co-IP” value [2] was “very little signal”.
